Measurements from PubChem BioAssay (NCI).
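1) Cells in 96-well plates. 2) Compound, 48 h, 5 concentrations. 3) Linear interpolation between surrounding doses. 4) Unreached endpoint = highest concentration. At the TGI there is no net growth.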

How the values were obtained:
Assay in all cases: inhibition of tumour cell growth, NCI panel, 48 h
786-0 renal = test system: 786-0 renal
A498 renal = test system: A498 renal
A549 NSCLC = test system: A549 NSCLC
ACHN renal = test system: ACHN renal
BT-549 breast = test system: BT-549 breast
CAKI-1 renal = test system: CAKI-1 renal
CCRF-CEM leukemia = test system: CCRF-CEM leukemia
COLO 205 colon = test system: COLO 205 colon
DU-145 prostate = test system: DU-145 prostate
EKVX NSCLC = test system: EKVX NSCLC
HCC-2998 colon = test system: HCC-2998 colon
HCT-116 colon = test system: HCT-116 colon
HCT-15 colon = test system: HCT-15 colon
HL-60(TB) leukemia = test system: HL-60(TB) leukemia
HOP-62 NSCLC = test system: HOP-62 NSCLC
HOP-92 NSCLC = test system: HOP-92 NSCLC
HS 578T breast = test system: HS 578T breast
HT29 colon = test system: HT29 colon
IGROV1 ovarian = test system: IGROV1 ovarian
K-562 leukemia = test system: K-562 leukemia
KM12 colon = test system: KM12 colon
M14 melanoma = test system: M14 melanoma
MALME-3M melanoma = test system: MALME-3M melanoma
MCF7 breast = test system: MCF7 breast
MDA-MB-231 breast = test system: MDA-MB-231 breast
MDA-MB-435 = test system: MDA-MB-435
MDA-N = test system: MDA-N
MOLT-4 leukemia = test system: MOLT-4 leukemia
NCI-H226 lung = test system: NCI-H226 lung
NCI-H23 lung = test system: NCI-H23 lung
NCI-H460 lung = test system: NCI-H460 lung
NCI-H522 lung = test system: NCI-H522 lung
NCI/ADR-RES ovarian = test system: NCI/ADR-RES ovarian
OVCAR-3 ovarian = test system: OVCAR-3 ovarian
OVCAR-4 ovarian = test system: OVCAR-4 ovarian
OVCAR-5 ovarian = test system: OVCAR-5 ovarian
OVCAR-8 ovarian = test system: OVCAR-8 ovarian
PC-3 prostate = test system: PC-3 prostate
RPMI-8226 leukemia = test system: RPMI-8226 leukemia
RXF 393 renal = test system: RXF 393 renal
SF-268 CNS = test system: SF-268 CNS
SF-295 CNS = test system: SF-295 CNS
SF-539 CNS = test system: SF-539 CNS
SK-MEL-2 melanoma = test system: SK-MEL-2 melanoma
SK-MEL-28 melanoma = test system: SK-MEL-28 melanoma
SK-MEL-5 melanoma = test system: SK-MEL-5 melanoma
SK-OV-3 ovarian = test system: SK-OV-3 ovarian
SN12C renal = test system: SN12C renal
SNB-19 CNS = test system: SNB-19 CNS
SR leukemia = test system: SR leukemia
T-47D breast = test system: T-47D breast
TK-10 renal = test system: TK-10 renal
U251 CNS = test system: U251 CNS
UACC-257 melanoma = test system: UACC-257 melanoma
UACC-62 melanoma = test system: UACC-62 melanoma
UO-31 renal = test system: UO-31 renal
LOX IMVI melanoma = test system: LOX IMVI melanoma
SNB-75 CNS = test system: SNB-75 CNS
SW-620 colon = test system: SW-620 colon

COC(=O)c1c(O)ccc2c1c1cc3ccccc3c(O)c1n2CCc1ccc(OC)c(OC)c1
TGI (786-0 renal): > 100 µM | TGI (A498 renal): > 100 µM | TGI (A549 NSCLC): > 100 µM | TGI (ACHN renal): > 100 µM | TGI (BT-549 breast): > 100 µM | TGI (CAKI-1 renal): > 100 µM | TGI (CCRF-CEM leukemia): > 100 µM | TGI (COLO 205 colon): 30.4 µM | TGI (DU-145 prostate): > 100 µM | TGI (EKVX NSCLC): > 100 µM | TGI (HCC-2998 colon): 86.8 µM | TGI (HCT-116 colon): > 100 µM | TGI (HCT-15 colon): > 100 µM | TGI (HL-60(TB) leukemia): > 100 µM | TGI (HOP-62 NSCLC): > 100 µM | TGI (HOP-92 NSCLC): > 100 µM | TGI (HS 578T breast): > 100 µM | TGI (HT29 colon): 18.6 µM | TGI (IGROV1 ovarian): > 100 µM | TGI (K-562 leukemia): > 100 µM | TGI (KM12 colon): > 100 µM | TGI (M14 melanoma): > 100 µM | TGI (MALME-3M melanoma): > 100 µM | TGI (MCF7 breast): > 100 µM | TGI (MDA-MB-231 breast): > 100 µM | TGI (MDA-MB-435): > 100 µM | TGI (MDA-N): > 100 µM | TGI (MOLT-4 leukemia): > 100 µM | TGI (NCI-H226 lung): > 100 µM | TGI (NCI-H23 lung): > 100 µM | TGI (NCI-H460 lung): > 100 µM | TGI (NCI-H522 lung): > 100 µM | TGI (NCI/ADR-RES ovarian): > 100 µM | TGI (OVCAR-3 ovarian): > 100 µM | TGI (OVCAR-4 ovarian): > 100 µM | TGI (OVCAR-5 ovarian): > 100 µM | TGI (OVCAR-8 ovarian): > 100 µM | TGI (PC-3 prostate): > 100 µM | TGI (RPMI-8226 leukemia): > 100 µM | TGI (RXF 393 renal): > 100 µM | TGI (SF-268 CNS): > 100 µM | TGI (SF-295 CNS): > 100 µM | TGI (SF-539 CNS): > 100 µM | TGI (SK-MEL-2 melanoma): > 100 µM | TGI (SK-MEL-28 melanoma): 91.1 µM | TGI (SK-MEL-5 melanoma): > 100 µM | TGI (SK-OV-3 ovarian): > 100 µM | TGI (SN12C renal): > 100 µM | TGI (SNB-19 CNS): > 100 µM | TGI (SR leukemia): > 100 µM | TGI (T-47D breast): > 100 µM | TGI (TK-10 renal): > 100 µM | TGI (U251 CNS): > 100 µM | TGI (UACC-257 melanoma): > 100 µM | TGI (UACC-62 melanoma): > 100 µM | TGI (UO-31 renal): > 100 µM

CC(=O)/C(=C\I)c1ccccc1
TGI (786-0 renal): 4.13 µM | TGI (A498 renal): 32.3 µM | TGI (A549 NSCLC): 30 µM | TGI (BT-549 breast): 3.39 µM | TGI (CCRF-CEM leukemia): 5.19 µM | TGI (COLO 205 colon): 3.14 µM | TGI (DU-145 prostate): 15.3 µM | TGI (EKVX NSCLC): 33.3 µM | TGI (HCT-116 colon): 4.65 µM | TGI (HCT-15 colon): 3.35 µM | TGI (HL-60(TB) leukemia): 3.49 µM | TGI (HOP-62 NSCLC): 46.9 µM | TGI (HOP-92 NSCLC): 4.74 µM | TGI (HS 578T breast): 40.5 µM | TGI (HT29 colon): 2.29 µM | TGI (IGROV1 ovarian): 4.25 µM | TGI (K-562 leukemia): 4.61 µM | TGI (KM12 colon): 13.3 µM | TGI (LOX IMVI melanoma): 3.59 µM | TGI (M14 melanoma): 4.4 µM | TGI (MALME-3M melanoma): 3.33 µM | TGI (MCF7 breast): 4.05 µM | TGI (MDA-MB-231 breast): 3.74 µM | TGI (MDA-MB-435): 12.8 µM | TGI (MDA-N): 3.28 µM | TGI (MOLT-4 leukemia): 5.35 µM | TGI (NCI-H226 lung): 47.6 µM | TGI (NCI-H23 lung): 4.99 µM | TGI (NCI-H460 lung): 24.7 µM | TGI (NCI/ADR-RES ovarian): 25 µM | TGI (OVCAR-3 ovarian): 3.23 µM | TGI (OVCAR-5 ovarian): 2.99 µM | TGI (OVCAR-8 ovarian): 3.45 µM | TGI (PC-3 prostate): 5.08 µM | TGI (RPMI-8226 leukemia): 5.26 µM | TGI (RXF 393 renal): 3.36 µM | TGI (SF-268 CNS): 36.5 µM | TGI (SF-295 CNS): 33.7 µM | TGI (SF-539 CNS): 34.2 µM | TGI (SK-MEL-2 melanoma): 4.75 µM | TGI (SK-MEL-28 melanoma): 10.4 µM | TGI (SK-OV-3 ovarian): 26.5 µM | TGI (SNB-19 CNS): 24.5 µM | TGI (SNB-75 CNS): 20.3 µM | TGI (SW-620 colon): 2.82 µM | TGI (T-47D breast): 3.83 µM | TGI (TK-10 renal): 26.8 µM | TGI (U251 CNS): 5.37 µM | TGI (UACC-257 melanoma): 15.5 µM | TGI (UACC-62 melanoma): 3.96 µM | TGI (UO-31 renal): 10.3 µM
